Reference: BindingDB's records for doi:10.1016/j.chembiol.2007.06.006 (Northwestern University, 2007)

Molecular target: T1, Progesterone receptor (Homo sapiens, UniProt P06401)
T1 sequence (P06401 whole entry): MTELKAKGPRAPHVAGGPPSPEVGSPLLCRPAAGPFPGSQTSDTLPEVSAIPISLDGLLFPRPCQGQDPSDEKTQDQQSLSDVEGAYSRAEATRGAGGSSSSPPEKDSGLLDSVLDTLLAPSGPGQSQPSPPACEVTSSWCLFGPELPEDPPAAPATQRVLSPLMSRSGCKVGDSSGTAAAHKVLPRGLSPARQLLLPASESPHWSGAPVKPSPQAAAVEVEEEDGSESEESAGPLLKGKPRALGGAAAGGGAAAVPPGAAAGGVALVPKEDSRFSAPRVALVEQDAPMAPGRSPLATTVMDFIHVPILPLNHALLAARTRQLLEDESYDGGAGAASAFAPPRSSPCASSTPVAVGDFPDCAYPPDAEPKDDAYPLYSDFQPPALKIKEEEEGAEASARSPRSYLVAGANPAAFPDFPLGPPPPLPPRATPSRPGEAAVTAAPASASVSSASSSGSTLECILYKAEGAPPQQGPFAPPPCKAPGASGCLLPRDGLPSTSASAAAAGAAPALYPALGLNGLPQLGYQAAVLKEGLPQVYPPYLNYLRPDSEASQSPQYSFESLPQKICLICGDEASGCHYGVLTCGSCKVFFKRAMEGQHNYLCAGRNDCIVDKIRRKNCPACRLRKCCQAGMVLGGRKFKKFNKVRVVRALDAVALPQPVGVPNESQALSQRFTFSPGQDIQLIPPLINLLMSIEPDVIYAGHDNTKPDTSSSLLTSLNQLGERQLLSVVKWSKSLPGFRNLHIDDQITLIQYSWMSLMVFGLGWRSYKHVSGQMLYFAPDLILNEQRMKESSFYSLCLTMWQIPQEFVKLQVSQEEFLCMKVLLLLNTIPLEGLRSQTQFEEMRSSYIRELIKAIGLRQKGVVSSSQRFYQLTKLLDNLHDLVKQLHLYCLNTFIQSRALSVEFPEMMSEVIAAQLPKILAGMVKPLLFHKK
Experiment: Progesterone Receptor Binding Assay
Settings: 22 °C

SMILES: C[C@]12CCC(=O)C=C1CCC1C2CC[C@@]2(C)C1CC[C@@H]2C(=O)COCCCCCCNC(=S)Nc1ccc(CC2C[N+]34CC[N+]56CC[N+]78CC[N+]29CC(=O)[O][Gd-5]5739([O]C(=O)C6)([O]C(=O)C8)[O]C(=O)C4)cc1 (some centres not stated) [Steroid-Gd (III) conjugate, 3]
- IC50: 860 nM

SMILES: C[C@]12CCC(=O)C=C1CCC1C2CC[C@@]2(C)C1CC[C@@H]2C(=O)COCCCCCC[N+]12CC[N+]34CC[N+]56CC[N+]7(CC1)CC(=O)[O][Gd-4]2375([O]C(=O)C4)[O]C(=O)C6 (some centres not stated) [Steroid-Gd (III) conjugate, 2]
- IC50: 460 nM
